From ChEMBL document CHEMBL1149513, “Arylpropionylpiperazines as antagonists of the human melanocortin-4 receptor” (Bioorg Med Chem Lett, 2006)

Tests used:
Melanocortin receptor 4 [1] = target: T1, Melanocortin receptor 4 (Homo sapiens, UniProt P32245); assay: Displacement of [125I]NDP-MSH from human MC4R expressed in HEK293 cells; format: cell-based
[2] = Ratio of drug level in brain against plasma in mouse after 1 hr at 5 mg/kg, iv; format: ADME, organism-based; parameters: dose 5 mg/kg, route intravenous; conditions: read-out: BPR
[3] = Clearance in mouse at 5 mg/kg, iv; format: ADME, organism-based; parameters: dose 5 mg/kg, route intravenous; conditions: in vivo
Mus musculus [4] = assay: AUC in mouse at 10 mg/kg, po; format: ADME, organism-based, Plasma; parameters: dose 10 mg/kg, route oral; conditions: in vivo
[5] = Drug level in mouse brain after 4 hrs at 5 mg/kg, iv; format: ADME, organism-based; parameters: dose 5 mg/kg, route intravenous; conditions: read-out: Drug uptake
[6] = Half life in mouse at 5 mg/kg, iv; format: ADME, organism-based; parameters: dose 5 mg/kg, route intravenous; conditions: in vivo
[7] = Ratio of drug level in brain against plasma in mouse after 4 hrs at 5 mg/kg, iv; format: ADME, organism-based; parameters: dose 5 mg/kg, route intravenous; conditions: read-out: BPR
[8] = Lipophilicity, Log D of the compound; format: physicochemical; conditions: octanol/water
[9] = Cmax in mouse at 10 mg/kg, po; format: ADME, organism-based; parameters: dose 10 mg/kg, route oral; conditions: in vivo
Mus musculus [10] = assay: AUC in mouse at 5 mg/kg, iv; format: ADME, organism-based, Plasma; parameters: dose 5 mg/kg, route intravenous; conditions: in vivo
Melanocortin receptor 5 = Melanocortin receptor 5 (Homo sapiens, UniProt P33032); assay: Displacement of [125I]NDP-MSH from human MC5R expressed in HEK293 cells; format: cell-based
Sequence of Melanocortin receptor 5 (P33032 whole entry): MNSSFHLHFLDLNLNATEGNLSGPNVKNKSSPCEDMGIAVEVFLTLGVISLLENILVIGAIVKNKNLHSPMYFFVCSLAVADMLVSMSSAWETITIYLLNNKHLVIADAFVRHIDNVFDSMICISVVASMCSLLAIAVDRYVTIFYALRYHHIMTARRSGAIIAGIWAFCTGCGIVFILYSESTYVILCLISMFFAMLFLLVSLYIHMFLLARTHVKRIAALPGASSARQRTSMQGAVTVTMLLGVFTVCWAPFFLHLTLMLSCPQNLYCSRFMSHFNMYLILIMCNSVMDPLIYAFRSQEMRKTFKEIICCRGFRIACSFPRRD

[11] = Volume of distribution in mouse at 5 mg/kg, iv; format: ADME, organism-based; parameters: dose 5 mg/kg, route intravenous; conditions: in vivo, read-out: Vdss
[12] = target: Melanocyte-stimulating hormone receptor (Homo sapiens) (UniProt Q01726); assay: Inhibition of [125I]NDP-MSH binding to human MC1R expressed in HEK293 cells; format: cell-based; conditions: concentration not given here
Sequence of Melanocyte-stimulating hormone receptor (Homo sapiens) (Q01726 whole entry, looked up): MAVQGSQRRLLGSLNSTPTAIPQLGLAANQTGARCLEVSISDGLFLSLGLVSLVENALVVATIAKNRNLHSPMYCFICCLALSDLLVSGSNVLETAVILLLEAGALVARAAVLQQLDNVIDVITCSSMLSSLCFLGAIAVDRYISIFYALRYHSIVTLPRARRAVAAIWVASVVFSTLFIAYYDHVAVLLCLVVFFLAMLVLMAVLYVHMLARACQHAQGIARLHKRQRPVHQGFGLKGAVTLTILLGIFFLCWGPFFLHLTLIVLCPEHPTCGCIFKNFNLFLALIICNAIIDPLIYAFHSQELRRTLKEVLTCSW

[13] = Tmax in mouse at 10 mg/kg, po; format: ADME, organism-based; parameters: dose 10 mg/kg, route oral; conditions: in vivo
[14] = Drug level in mouse brain after 1 hr at 5 mg/kg, iv; format: ADME, organism-based; parameters: dose 5 mg/kg, route intravenous; conditions: read-out: Drug uptake
[15] = Bioavailability in mouse at 10 mg/kg, po; format: ADME, organism-based; conditions: in vivo
Melanocortin receptor 4 [16] = target: T1, Melanocortin receptor 4; assay: Activity at MC4R assessed as inhibition of alpha-MSH-stimulated cAMP production; format: functional
Melanocortin receptor 3 = Melanocortin receptor 3 (Homo sapiens, UniProt P41968); assay: Displacement of [125I]NDP-MSH from human MC3R expressed in HEK293 cells; format: cell-based
Sequence of Melanocortin receptor 3 (P41968 whole entry): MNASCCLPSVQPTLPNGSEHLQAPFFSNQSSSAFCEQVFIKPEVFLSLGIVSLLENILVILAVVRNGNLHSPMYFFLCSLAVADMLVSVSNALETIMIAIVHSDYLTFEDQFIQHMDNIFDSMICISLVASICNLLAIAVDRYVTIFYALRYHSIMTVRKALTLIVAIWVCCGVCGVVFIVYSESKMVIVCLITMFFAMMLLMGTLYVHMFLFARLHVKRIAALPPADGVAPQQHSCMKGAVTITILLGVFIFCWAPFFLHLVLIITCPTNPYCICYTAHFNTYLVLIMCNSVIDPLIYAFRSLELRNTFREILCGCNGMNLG

[17] = target: Melanocortin receptor (M4 and M5) (Homo sapiens) (UniProt P32245+P33032); assay: Selectivity for MC4R over MC5R; format: protein assay
Sequence of Melanocortin receptor (M4 and M5) (Homo sapiens) (P32245 whole entry, looked up): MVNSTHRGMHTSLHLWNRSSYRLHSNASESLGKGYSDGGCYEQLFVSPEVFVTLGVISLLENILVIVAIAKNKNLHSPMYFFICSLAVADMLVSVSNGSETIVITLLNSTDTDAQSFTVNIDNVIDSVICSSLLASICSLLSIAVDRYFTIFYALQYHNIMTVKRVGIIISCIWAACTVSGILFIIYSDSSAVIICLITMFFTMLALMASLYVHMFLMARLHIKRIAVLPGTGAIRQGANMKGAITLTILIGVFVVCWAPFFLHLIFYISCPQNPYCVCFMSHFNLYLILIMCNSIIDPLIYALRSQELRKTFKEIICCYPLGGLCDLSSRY
Sequence of Melanocortin receptor (M4 and M5) (Homo sapiens) (P33032 whole entry, looked up): as the sequence (P33032 whole entry) above

T1 sequence (P32245 whole entry): as the sequence (P32245 whole entry, looked up) above

| SMILES | Ki (Melanocortin receptor 4 [1]) | also measured |
| --- | --- | --- |
| Cc1cccc(CCC(=O)N2CCN(c3ccc(C(F)(F)F)cc3[C@@H](N)CC(C)C)CC2)c1 | 2100 nM |  |
| CCC(C)[C@H](NC(C)=O)c1cc(C(F)(F)F)ccc1N1CCN(C(=O)CCc2ccc(Cl)cc2Cl)CC1 (stereo not given in full) | 360 nM |  |
| CC(C)C[C@H](N)c1cc(C(F)(F)F)ccc1N1CCN(C(=O)CCc2cccs2)CC1 | 4600 nM |  |
| CCC(C)[C@H](NC[C@H](C)N)c1cc(C(F)(F)F)ccc1N1CCN(C(=O)CCc2ccc(Cl)cc2Cl)CC1 (stereo not given in full) | 89 nM |  |
| CCC(C)CN[C@H](c1cc(C(F)(F)F)ccc1N1CCN(C(=O)CCc2ccc(Cl)cc2Cl)CC1)C(C)CC (stereo not given in full) | 2800 nM |  |
| COc1ccc(OC)c(CCC(=O)N2CCN(c3ccc(C(F)(F)F)cc3[C@@H](N)CC(C)C)CC2)c1 | 2500 nM |  |
| CCC(C)[C@H](NCC1CCCO1)c1cc(C(F)(F)F)ccc1N1CCN(C(=O)CCc2ccc(Cl)cc2Cl)CC1 (stereo not given in full) | 780 nM |  |
| CC(C)C[C@H](N)c1cc(C(F)(F)F)ccc1N1CCN(C(=O)CCc2ccccc2O)CC1 | 3300 nM |  |
| CCC(C)[C@H](NC(=O)CN)c1cc(C(F)(F)F)ccc1N1CCN(C(=O)CCc2ccc(Cl)cc2Cl)CC1 (stereo not given in full) | 18 nM |  |
| CC(C)C(N)c1cc(C(F)(F)F)ccc1N1CCN(C(=O)CCc2ccc(Cl)cc2Cl)CC1 (stereo not given) | 140 nM |  |
| CCC(C)[C@H](NC[C@H]1CCCN1)c1cc(C(F)(F)F)ccc1N1CCN(C(=O)CCc2ccc(Cl)cc2Cl)CC1 (stereo not given in full) | 110 nM |  |
| CC(C)C[C@H](N)c1cc(C(F)(F)F)ccc1N1CCN(C(=O)CCc2cccc(C(F)(F)F)c2)CC1 | 2200 nM |  |
| CC(C)C[C@H](N)c1cc(C(F)(F)F)ccc1N1CCN(C(=O)CCc2c(Cl)cccc2Cl)CC1 | 2600 nM |  |
| CC(C)C[C@H](N)c1cc(C(F)(F)F)ccc1N1CCN(C(=O)CCc2ccc(O)cc2)CC1 | > 10000 nM |  |
| COc1cccc(CCC(=O)N2CCN(c3ccc(C(F)(F)F)cc3[C@@H](N)CC(C)C)CC2)c1 | 4000 nM |  |
| CC(C)C[C@H](N)c1cc(C(F)(F)F)ccc1N1CCN(C(=O)CCc2csc3ccccc23)CC1 | 2300 nM |  |
| CN[C@@H](CC(C)C)c1cc(C(F)(F)F)ccc1N1CCN(C(=O)CCc2ccc(Cl)cc2Cl)CC1 | 1900 nM |  |
| CCC(C)[C@H](N)c1cc(C(F)(F)F)ccc1N1CCN(C(=O)CCc2ccc(OC)cc2Cl)CC1 (stereo not given in full) | 57 nM |  |
| CCC(C)[C@H](N)c1cc(C(F)(F)F)ccc1N1CCN(C(=O)CCc2ccc(Cl)cc2)CC1 (stereo not given in full) | 86 nM |  |

| SMILES | Ki (Melanocortin receptor 4 [1]) | also measured |
| --- | --- | --- |
| CC(C)C[C@H](N)c1cc(C(F)(F)F)ccc1N1CCN(C(=O)CCc2ccc3c(c2)OCO3)CC1 | 1500 nM |  |
| CC(C)C[C@H](N)c1cc(C(F)(F)F)ccc1N1CCN(C(=O)CCc2ccccc2F)CC1 | 2800 nM |  |
| CCC(C)[C@H](N)c1cc(C(F)(F)F)ccc1N1CCN(C(=O)CCc2ccc(OC)c(OC)c2Cl)CC1 (stereo not given in full) | 2500 nM |  |
| CC(C)C[C@H](N)c1cccc(F)c1N1CCN(C(=O)CCc2ccc(Cl)cc2Cl)CC1 | 110 nM | Ki (Melanocortin receptor 5): 1200 nM; inhibition [12]: 21%; Ki (Melanocortin receptor 3): 1400 nM |
| CC(C)C[C@H](N)c1cc(C(F)(F)F)ccc1N1CCN(C(=O)CCc2c[nH]c3ccccc23)CC1 | 640 nM |  |
| COc1ccc(CCC(=O)N2CCN(c3ccc(C(F)(F)F)cc3[C@@H](N)CC(C)C)CC2)cc1OC | 4300 nM |  |
| CCC(C)[C@H](NC[C@@H]1CCCN1)c1cc(C(F)(F)F)ccc1N1CCN(C(=O)CCc2ccc(Cl)cc2Cl)CC1 (stereo not given in full) | 64 nM |  |
| CCC(C)[C@H](NS(C)(=O)=O)c1cc(C(F)(F)F)ccc1N1CCN(C(=O)CCc2ccc(Cl)cc2Cl)CC1 (stereo not given in full) | 1800 nM |  |
| COc1cc(OC)c(OC)cc1CCC(=O)N1CCN(c2ccc(C(F)(F)F)cc2[C@@H](N)CC(C)C)CC1 | 6100 nM |  |
| Cc1[nH]c2ccccc2c1CCC(=O)N1CCN(c2ccc(C(F)(F)F)cc2[C@@H](N)CC(C)C)CC1 | 1600 nM |  |
| CC(C)C[C@H](N)c1cc(C(F)(F)F)ccc1N1CCN(C(=O)CCc2ccc(S(C)(=O)=O)cc2)CC1 | 4900 nM |  |
| CCN[C@H](c1cc(C(F)(F)F)ccc1N1CCN(C(=O)CCc2ccc(Cl)cc2Cl)CC1)C(C)CC (stereo not given in full) | 92 nM |  |
| COc1ccccc1CCC(=O)N1CCN(c2ccc(C(F)(F)F)cc2[C@@H](N)CC(C)C)CC1 | 1400 nM |  |
| COc1ccc(CCC(=O)N2CCN(c3ccc(C(F)(F)F)cc3[C@@H](N)CC(C)C)CC2)cc1 | 350 nM |  |
| CCC(C)[C@H](NC(=O)OC)c1cc(C(F)(F)F)ccc1N1CCN(C(=O)CCc2ccc(Cl)cc2Cl)CC1 (stereo not given in full) | 2400 nM |  |
| CC(C)C[C@H](N)c1cc(C(F)(F)F)ccc1N1CCN(C(=O)CCc2ccc(Cl)cc2Cl)CC1 | 74 nM |  |
| CC(C)C[C@H](N)c1cc(C(F)(F)F)ccc1N1CCN(C(=O)CCc2ccccc2Cl)CC1 | 1700 nM |  |
| CC(C)C[C@H](N)c1cc(C(F)(F)F)ccc1N1CCN(C(=O)CCc2cn(C)c3ccccc23)CC1 | 3000 nM |  |

More lines, main results first:

| Ki (Melanocortin receptor 4 [1]) | SMILES | also measured |
| --- | --- | --- |
| 690 nM | CCOCC(N)c1cc(F)ccc1N1CCN(C(=O)CCc2ccc(Cl)cc2Cl)CC1 (stereo not given) |  |
| 400 nM | NCCNC(COCc1ccccc1)c1cc(F)ccc1N1CCN(C(=O)CCc2ccc(Cl)cc2Cl)CC1 (stereo not given) |  |
| 160 nM | CCC(C)C(N)c1cc(C(F)(F)F)ccc1N1CCN(C(=O)CCc2ccc(Cl)cc2Cl)CC1 (stereo not given) |  |
| > 10000 nM | CCC(C)[C@H](NCc1ccccc1F)c1cc(C(F)(F)F)ccc1N1CCN(C(=O)CCc2ccc(Cl)cc2Cl)CC1 (stereo not given in full) |  |
| 94 nM | CC(C)C[C@H](N)c1cc(F)ccc1N1CCN(C(=O)CCc2ccc(Cl)cc2Cl)CC1 |  |
| 19 nM | CC(C)C[C@H](NC(=O)CN)c1cc(C(F)(F)F)ccc1N1CCN(C(=O)CCc2ccc(Cl)cc2Cl)CC1 | Kp at 1 h [2]: 0.08; clearance [3]: 26.9 mL/min/kg; AUC (Mus musculus [4]): 687 ng·h/mL; concentration at 4 h [5]: 33 ng/g; half-life [6]: 228 min; Kp at 4 h [7]: 0.17; logD [8]: 4.5; Cmax [9]: 115 ng/mL; AUC (Mus musculus [10]): 3070 ng·h/mL; Ki (Melanocortin receptor 5): 500 nM; Vd [11]: 8.8 L/kg; inhibition [12]: 18%; Tmax [13]: 2 h; concentration at 1 h [14]: 43 ng/g; bioavailability [15]: 11.2%; IC50 (Melanocortin receptor 4 [16]): 1300 nM; Ki (Melanocortin receptor 3): 1200 nM; Selectivity ratio [17]: > 25 |
| 30 nM | CCC(C)[C@H](NCCCN)c1cc(C(F)(F)F)ccc1N1CCN(C(=O)CCc2ccc(Cl)cc2Cl)CC1 (stereo not given in full) |  |
| 210 nM | NCCC(=O)NC(COCc1ccccc1)c1cc(F)ccc1N1CCN(C(=O)CCc2ccc(Cl)cc2Cl)CC1 (stereo not given) |  |
| 56 nM | CCC(C)[C@H](NCCN)c1cc(C(F)(F)F)ccc1N1CCN(C(=O)CCc2ccc(Cl)cc2Cl)CC1 (stereo not given in full) |  |
| 190 nM | CCCCC(N)c1cc(C(F)(F)F)ccc1N1CCN(C(=O)CCc2ccc(Cl)cc2Cl)CC1 (stereo not given) |  |
| 5900 nM | CCC(C)[C@H](NCc1ccccc1)c1cc(C(F)(F)F)ccc1N1CCN(C(=O)CCc2ccc(Cl)cc2Cl)CC1 (stereo not given in full) |  |
| 2600 nM | CCC(C)[C@H](NCCc1ccccc1)c1cc(C(F)(F)F)ccc1N1CCN(C(=O)CCc2ccc(Cl)cc2Cl)CC1 (stereo not given in full) |  |
| 300 nM | CCOCC(NC(=O)CCN)c1cc(F)ccc1N1CCN(C(=O)CCc2ccc(Cl)cc2Cl)CC1 (stereo not given) |  |
| 13 nM | CCC(C)[C@H](NC(=O)CCN)c1cc(C(F)(F)F)ccc1N1CCN(C(=O)CCc2ccc(Cl)cc2Cl)CC1 (stereo not given in full) | Kp at 1 h [2]: 0.02; clearance [3]: 3.5 mL/min/kg; AUC (Mus musculus [4]): 12100 ng·h/mL; concentration at 4 h [5]: 70 ng/g; half-life [6]: 312 min; Kp at 4 h [7]: 0.03; logD [8]: 4; Cmax [9]: 1170 ng/mL; AUC (Mus musculus [10]): 23100 ng·h/mL; Ki (Melanocortin receptor 5): 170 nM; Vd [11]: 1.6 L/kg; inhibition [12]: 17%; Tmax [13]: 6 h; concentration at 1 h [14]: 62 ng/g; bioavailability [15]: 26.1%; IC50 (Melanocortin receptor 4 [16]): 1100 nM; Ki (Melanocortin receptor 3): 800 nM |
| 170 nM | CCN[C@@H](CC(C)C)c1cc(C(F)(F)F)ccc1N1CCN(C(=O)CCc2ccc(Cl)cc2Cl)CC1 |  |
| 75 nM | CC[C@H](C)C(N)c1cc(C(F)(F)F)ccc1N1CCN(C(=O)CCc2ccc(Cl)cc2Cl)CC1 (stereo not given in full) |  |
| 620 nM | COCCN[C@@H](CC(C)C)c1cc(C(F)(F)F)ccc1N1CCN(C(=O)CCc2ccc(Cl)cc2Cl)CC1 |  |
| 490 nM | CC(N)c1cc(C(F)(F)F)ccc1N1CCN(C(=O)CCc2ccc(Cl)cc2Cl)CC1 (stereo not given) |  |
| 25 nM | CC(C)C[C@H](NC(=O)CCN)c1cc(C(F)(F)F)ccc1N1CCN(C(=O)CCc2ccc(Cl)cc2Cl)CC1 |  |
| 1000 nM | NC(COCc1ccccc1)c1cc(F)ccc1N1CCN(C(=O)CCc2ccc(Cl)cc2Cl)CC1 (stereo not given) |  |
